The source of these data is US10213507B2, “Compositions and methods for treating HIV-associated neurocognitive disorders” (THE FLORIDA INTERNATIONAL UNIVERSITY BOARD OF TRUSTEES, priority 2017, dated 2019).

For series [1], the system named is HIV-1. Briefly: HIV infection of CHME-5 microglial cells (p24 ELISA, LTR quantitative real-time PCR). As to conditions: WA 0.5 and 1 μM, 7 dpi. In kind it is cell-based. On the procedure:
(§1) FIGS. 6A-6C show Effect of WA on HIV-1 suppression and its cytotoxicity in microglial (CHME-5) cell±HIV. […] (A) p24 study; (B) LTR and (C) Cytotoxicity study: XTT assay was performed on WA treated CHME-5 cells (n=3; *, p≤0.05; ****, p≤0.001; NS-Not Significant).
(§2) Human microglial cells (CHME-5) were infected with HIV and treated with different concentrations of WA (0.5 and 1 μM). Seven days post-infection (dpi), culture supernatant was used for p24 ELISA and cell pellet was used for the […] (LTR) measurement using quantitative real-time PCR.
For orientation: An ELISA detects its analyte on a solid surface through an enzyme-linked reagent.

In series [2] the test system is HIV. As to the kind of experiment: HIV LTR detection in HIV-exposed SH-APP cells. In kind it is cell-based. As to conditions: WA 2 μm, HIV 100 ng, 1 dpi; 30,000 copies with HIV alone. The text has this: (n=3; *, p≤0.05; **, p≤0.01; and ***, p≤0.001.)
AβPP-transfected SH-APP cells are susceptible to HIV infection.

The subject of series [3] is Aβ-production in SH-APP cells. As to the kind of experiment: HIV-induced β-amyloid production in SH-APP cells by flow cytometry. It is filed as cell-based, human. Particulars: HIV 100 ng 7 days, WA 2 μM 48 hours, Aβ 1-40 specific antibody. On the procedure: FIGS. 7A-7D show quantitative analysis of β-amyloid production after 7 days of HIV infection and 48 hours of WA treatment (2 μM) on SH-APP (neuroblastoma cell line) using flow cytometry. An increase in β-amyloid production is observed in cells treated with B) HIV-100 ng; compared to A) Control.

In series [4] the test system is in-vitro BBB model (brain microvascular endothelial cells, astrocytes and pericytes). Briefly: In-vitro BBB model integrity (TEER). In kind it is cell-based, human. As to conditions: free WA 2 μM in apical chamber, external magnetic field 0.8 T, 3 h. On the procedure:
(§3) FIGS. 3A-3B provide: A) Effect of WA and MENP on in-vitro BBB integrity: WA (2 μM) and MENPs (100 μg) were added in the upper chamber of the BBB model with magnet (0.8 T) placed underneath the culture plate for 3 h duration. After treatment, Transepithelial Electrical Resistance (TEER) values were calculated and compared with control; B) Aβ1-40 ELISA from supernatant from SHAPP cells: To study WA (2 μM) efficacy and BBB permeability without MENPs, Aβ1-40 specific enzyme-linked immunosorbent assay (ELISA) was performed using supernatant collected from the basal side of the BBB trans-well where SHAPP cells were seeded at the bottom of culture plate. (n=3; NS-Not Significant.)
(§4) In-vitro BBB model was developed using brain microvascular endothelial cells, astrocytes and pericytes. The integrity of BBB was examined by measuring the TEER values before and after addition of free WA (2 μM) and free MENPs (100 μg) to the apical chamber of in vitro BBB model.
Preparation and validation of BBB integrity: Established in vitro BBB model can be used. The BBB model can be constructed using primary endothelial cells (HBMEC), pericytes (HMVP) and astrocytes (HA). BBB formation and intactness can be determined by measuring the TEER using the REMS AutoSampler BBB device and permeability to fluorescein isothiocyanate-dextran (FITC dextran). […]

Series [5] concerns Aβ secretion by SH-APP cells. Briefly: Aβ 1-40 ELISA of culture supernatants of WA treated SH-APP cells. It is filed as cell-based, human. On the procedure:
(n=3; *, p≤0.05; NS-Not Significant).
Human neuroblastoma cells transfected with APP gene (SH-APP) were cultured with different concentrations of WA (0.5 to 2.5 μM) and the culture supernatants were tested for Aβ 1-40 by ELISA.

Series [6] relates to SH-APP cells. As to the kind of experiment: MTT cytotoxicity assay in SH-APP cells. In kind it is cell-based, human. As to conditions: WA 0.5 to 2.5 μM, 48 hours.
In series [7] the test system is CHME-5 cells. Briefly: XTT cytotoxicity assay in CHME-5 cells. In kind it is cell-based. As to conditions: 1 μM WA, 48 hours. On the procedure:
as §1, §2

The test system of series [8] is Aβ-secretion in SH-APP cells. Briefly: WA BBB permeability without MENPs: Aβ1-40 ELISA of SH-APP cells in the basal chamber of the BBB trans-well. In kind it is cell-based, human. On the procedure: as §3, §4
The target of series [9] is T1, σ-1 receptor (Mus musculus, UniProt O55242).
T1 construct: from tissue; host or cells: whole animal (mice), endogenous receptor
T1 sequence (O55242 whole entry): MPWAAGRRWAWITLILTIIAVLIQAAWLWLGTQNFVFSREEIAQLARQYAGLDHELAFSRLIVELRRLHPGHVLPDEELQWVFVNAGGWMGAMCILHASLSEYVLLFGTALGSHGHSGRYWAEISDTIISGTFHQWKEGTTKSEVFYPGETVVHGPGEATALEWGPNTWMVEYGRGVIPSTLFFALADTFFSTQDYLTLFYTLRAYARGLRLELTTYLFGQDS
Particulars: pre-treatment of mice; cited from earlier work.

Series [10] is described as follows: Release of miR-107 from MENPs under alternating current magnetic field (UV spectroscopy at 260 nm). In kind it is physicochemical. Particulars: 30 mins. On the procedure:
(§5) FIGS. 2A-2B provide miR-107 binding and release. A) % binding of miR-107 with MENP with respect to different concentrations; B) Release kinetics of miR-107 from MENP surface as a function of externally applied alternating current magnetic field strength (60 and 80 Oe) at different time points (10, 20 and 30 min).
(§6) Binding kinetics with respect to different concentrations of miR-107 was performed using 100 μg of MENPs (FIG. 2A). Sample were incubated in phosphate buffered saline (PBS) (pH-7.4) and kept on vertical rotator under constant rotation (200 rpm) for 30 minutes. […] Release kinetics of miR-107 from MENPs was studied using UV spectroscopy at 260 nm. 100 nM of miR-107 was incubated with 100 μg of MENPs in 1 mL PBS (pH 7.4) for 30 mins and its release kinetics performed using alternating current magnetic field via electromagnetic coil at various time points (i.e., 10, 20, and 30 minutes).

Series [11] is described as follows: Binding of miR-107 to MENPs. In kind it is physicochemical. As to conditions: 100 nM miR-107, 100 μg MENPs, PBS pH 7.4, 30 minutes. On the procedure: as §5, §6

Entries after “also recorded” stand apart in the source; their conditions may differ. Some results are limits rather than exact numbers.

For the molecule `CC1=C(CO)C(=O)O[C@@H]([C@@H](C)[C@H]2CC[C@H]3[C@@H]4C[C@H]5O[C@]56[C@@H](O)C=CC(=O)[C@]6(C)[C@H]4CC[C@]23C)C1` [WA, 5,6-Epoxy-4,27-dihydroxy-1-oxowitha-2,24-dienolide], in series [1] (cell pellet), the “HIV-1 replication, LTR levels” value is listed as “significant suppression”. The “HIV-1 replication, p24 levels” value in series [1] (culture supernatant) is “significant suppression”. The “HIV induced LTR copies” value in series [2] amounted to 400 copies. In addition, the “HIV-induced Aβ levels” value in series [3] was “significantly decreased”. Besides, the “TEER values (BBB integrity)” value in series [4] is “no difference in TEER values”. In addition, the “β-Amyloid production (Aβ1-40 ELISA)” value in series [5] (2 µM WA) is reported as “significantly attenuates”. Further, the “Aβ secretion (Aβ 1-40)” value in series [5] (WA 0.5 to 2.5 μM) is reported as “dose dependent decrease”. For the same molecule, the cytotoxicity entry in series [6] is recorded as “do not show any cytotoxic effects; also recorded: no significant cytotoxicity”. Also, the cell viability in series [7] is given as more than 80%. Further, in [8] (WA 2 μM without MENP in the apical chamber), the “Aβ-secretion in SH-APP cells in basal chamber vs untreated control” value was “no changes in the Aβ-secretion”. Besides, the “crossing of the BBB” value in series [8] (free WA 2 μM, not bound to MENP, apical chamber) was “could not cross the BBB”.

Take `CN1CCN(CCc2ccc(Cl)c(Cl)c2)CC1.Cl.Cl` [BD1063, 1-[2-(3,4-Dichlorophenyl)ethyl]-4-methylpiperazine dihydrochloride]: in series [9], the cocaine-induced convulsions result is listed as “significantly attenuated” and the “cocaine-induced locomotor stimulatory effects” value was “significantly attenuated”.

Consider “miR-107: microRNA 107, inhibitor of BACE-1 expression; SEQ ID NO: 1 (pre-miRNA), SEQ ID NO: 2 (mature) (AGCAGCAUUGUACAGGGCUAUCA; listed as RNA, chemistry not given here; listed as Homo sapiens)”, for which the “release of miR-107 from MENPs” value in series [10] (60 Oe alternating current magnetic field) was 75%; in series [10] (100 Hz, 80 Oe alternating current magnetic field), approximately 100%. Besides, the “maximum miR-107 binding to MENPs” value in [11] turned out to be 70%.

For orientation: cell viability means the share of living cells, or the viability signal relative to a control. Read a low cell viability as a greater loss of cells.
